Patent US20250275541A1, “NEMATOSTATIC COMPOSITIONS, AND USE THEREOF IN AGRICULTURE” (AGRO INNOVATION INTERNATIONAL, priority 2019, published 2025)

Assays:
[1] = system: Meloidogyne javanica; assay: Mobility of Meloidogyne javanica in the soil microcosm (Example 1)
Procedure: The nematodes will be distributed randomly in the layer of soil, depending on their mobility. After adding the test products and incubating for 6 h, the column of soil and the sieve were placed in a tube containing water. The mobile nematodes pass through the column of soil and migrate naturally into the water. The nematodes passing into the water can be counted. If the concentration of test product considered is inhibitory for the mobility of the nematodes in the presence of soil, the nematodes are kept in the column of soil and delayed in their migration into the water. The time for emergence of the nematodes from the column of soil is longer as the concentration of nematostatic product increases.

[2] = system: Meloidogyne javanica; assay: Mobility of Meloidogyne javanica in the soil microcosm, different carboxylic acids (Example 3); details: Fluopyram 24 ppm (positive control), 5 h incubation
Procedure: Juvenile nematodes of M. javanica were deposited on the surface of a column of sterile soil 2 cm thick resting on a sieve (cotton wool), 1 hour before adding the test products in order to allow them time to move in the porosity of the soil. The nematodes will be distributed randomly in the layer of soil, depending on their mobility. […] The mobile nematodes pass through the column of soil and migrate naturally into the water. The nematodes passing into the water can be counted.
If the concentration of test product considered is inhibitory for the mobility of the nematodes in the presence of soil, the nematodes are kept in the column of soil and delayed in their migration into the water. The time for emergence of the nematodes from the column of soil is longer as the concentration of nematostatic product increases.
The method is identical to that described in Example 1. […]

[3] = calcium formate 780 ppm alone, or with RD2 100 or 1000 ppm, 6 h incubation, kinetics over 144 h

| Structure (SMILES) | nematodes that left the microcosm at 3 days ([1]; at 3 days, calcium formate 780 ppm alone, or calcium formate 780 ppm + RD2 1000 ppm) [%] | nematodes affected reversibly in their mobility [1, 3] [%] | nematodes not affected in their mobility [1, 3] [%] | nematodes affected irreversibly at 6 days ([1]; calcium formate 780 ppm alone, or with RD2 100 or 1000 ppm, at 6 days) [%] | nematodes that had left the microcosm of the soil after 160 hours [2] |
| --- | --- | --- | --- | --- | --- |
| O=C[O-].O=C[O-].[Ca+2] [calcium formate] | 92 | 62 | 14 | 24 | – |
| O=C(NCCc1ncc(C(F)(F)F)cc1Cl)c1ccccc1C(F)(F)F [Fluopyram] | – | – | – | – | no nematode had left the microcosm |
